Laboratory results from patent US12558400B2, “Method of treatment of soft tissue sarcoma with a peptide comrpising a PCNA interacting motif” (THERAPIM PTY LTD, priority 2020, dated 2026).
Where no end group is shown, it is not given here.

Tests used:
[1] = system: patients with advanced solid tumors; test: Phase I safety and tolerability study of ATX-101 (studies ATX101-01 and -02); assay type: in vivo
Method: A Phase I, open-label, single arm, safety and tolerability study was conducted (study ATX101-01) which evaluated escalating dose cohorts of ATX-101 (SEQ ID NO: 914) in patients with advanced solid tumors. The study was designed to systematically assess safety and tolerability, and to identify the Maximum Tolerated Dose (MTD) and recommended Phase II dose for ATX-101. Pharmacokinetics and preliminary efficacy (anti-tumor activity) were also assessed.
If at the end of the 6-week Phase I study (study ATX101-01) the patient's tumor didn't show signs of progression, treatment could be continued in a long-term follow-up study (study ATX101-02) until disease progression or other reasons for treatment discontinuation, e.g. withdrawal of consent.
Four dose levels (20, 35, 45 and 60 mg/m^2 of body surface area calculated based on the height and weight of patients) of intravenous ATX-101 (net peptide, excluding the mass of the salt component) were tested in the Phase I study (study ATX101-01). ATX-101 was administered via IV infusion over at least 1 hour either using a constant infusion rate or an adaptable infusion rate scheme starting with 5 mg/hr and increasing the infusion flow rate every 30 minutes, as outlined in the infusion rate table below (Table 1). […] Doses of 45 and 60 mg/m^2 were administered in 500 mL.
Treatment was administered weekly in cycles of 21-day duration, with a single IV infusion of ATX-101 on Day 1, 8 and 15 of each cycle. Dosing of patients occurred weekly for up to two cycles (i.e. 2×21 days=6 weeks).
Following the initial 6 weeks of treatment in the Phase I study (study ATX101-01), patients could continue the treatment in the long-term follow-up study (study ATX101-02). These patients, that received the same dose regimen as in study −01, were treated for up to 15.6 months.
Safety: Incidence, severity, and duration of treatment-emergent adverse events (TEAEs) and treatment related TEAEs were assessed according to Common Terminology Criteria for Adverse Events (CTCAE) v4.03.

[2] = Solubility of the peptide drug substance; assay type: physicochemical; conditions: water and aqueous media; hydrochloride salt
Source text: The product was available as a hydrochloride salt (chloride counter-ion is ionically bound to the basic side chains of the peptide; 18 mol/mol peptide, theoretically; Molecular formula: C158H285N71O29S, 18 HCl; Relative molecular mass: […]. Free base: 3673.3).

For “Ac-MDRWLVKWKKKRKIRRRRRRRRRRR (N-terminus assumed) [ATX-101]”, the treatment related deaths ([1]; 22 patients, weekly IV infusion, all dose levels (20-60 mg/m^2)) was “No treatment related deaths”, the “course of infusion-related reactions after repeated doses” value ([1]; in vivo) was “did not worsen” and the “Dose Limiting Toxicities (DLTs)” value ([1]; in vivo, iv) was “no Dose Limiting Toxicities”. For the same substance, the “infusion-related reactions (IRR) Grade 1 or 2, proportion of patients” value ([1]; in vivo, iv) was 73%, the “treatment discontinuation due to treatment related toxicity” value ([1]; in vivo, iv) was “no treatment discontinuation due to treatment related toxicity” and the “treatment related serious adverse event or severe adverse event” value ([1]; in vivo, iv) was “no treatment related serious adverse event or severe adverse event”. For the same substance, the solubility [2] was “freely soluble”.
